# Patent publication US20030198617A1, “Pharmaceutical tryptophan containing dipeptide compositions and methods of use thereof” (priority 1993, published 2003)
# Where two headings read alike, the source gives them in different places. Marks after values point to notes of the source that are not given here.
# Assays:
# [1] = Acute radiation sickness, 6 months after accident, blood parameters; format: in vivo, human; conditions: after therapy with IM862
# Experimental: The patients described above in Example 47 were tested for blood parameters after 6 months of treatment immediately following exposure to the radiation caused by the Chernobyl accident.
# [2] = Young sportsmen, upper respiratory infections; format: in vivo, human; conditions: IM862 intranasally 1 μg/kg, 3 days, 84 sportsmen
# Description: The control group consisted of 44 persons.
# [3] = test system: Staphylococci; assay: Antibiotic-sensitivity of staphylococci from skin lesions (MIC, series cultivation); format: cell-based; conditions: after IM862 use (initially 10 of the 15)
# Description: Staphylococci extracted from dermal lesions were initially sensitive to 10 of the 15 antibiotics being assayed (Table 25).
# [4] = Spontaneous tumorigenesis, experimental models; format: in vivo; conditions: IM862 prophylactically
# [5] = Pediatric purulent maxillary sinusitis, local IM862; format: in vivo, human; conditions: for B-lymphocytes % / B-lymphocytes abs. / Immune complexes / Leukocytes, abs / Lymphocytes % / Lymphocytes, abs / O-lymphocytes % / O-lymphocytes abs. / T-lymphocytes % / T-lymphocytes abs. / Lysozyme: after treatment c IM862
# [6] = test system: Candida albicans; assay: Candida albicans intraperitoneal infection in guinea pigs; format: in vivo
# Description: Two groups of guinea pigs were inoculated with Candida albicans by intraperitoneal injection. […] The other group was not treated.
# Animals were sacrificed at day 5 and day 10. The peritoneal cavities were examined for signs of inflammation. These signs included number of infectious foci adherent to the omentum, exudate, fibrin deposition, quantitative fungal cultures, and the number of neutrophils, macrophages, and lymphocytes infiltrating the peritoneum.
# [7] = test system: ARD and influenza; format: in vivo, human
# [8] = test system: hemorrhagic Dengue Fever; assay: Hemorrhagic Dengue Fever study, duration of symptoms; format: in vivo, human; conditions: IM862 administered
# Experimental: All those examined were representatives of organized collectives and had the same type of working and living conditions prior to the onset of illness. The patients were referred to in-patient treatment to the 175th Military Hospital in Ho Chi Minh City during an epidemic of Dengue fever in southern Socialist Republic of Vietnam.
# Diagnoses of HDF were established by criteria recommended by the WHO (1986). Serological analyses were performed at the Arbovirus Infections Laboratory of the Pasteur Institute (Ho Chi Minh City). Disease severity was 1-2 in all patients.
# The patients were divided into one group treated with IM862 and one group not receiving IM862. […] The efficacy of therapy was determined by observation of the duration of the most frequently encountered signs and symptoms of the disease (Table 14).
# [9] = Patients with fever, toxic symptoms, jaundice (Example 101); format: in vivo, human; conditions: IM862 IM or intranasally 5-10 days, 39 patients
# Description: A total of 39 patients were studied with 27 patient controls. […] Immunological indices were normalized.
# [10] = acute purulent maxillary sinusitis
# [11] = chronic purulent maxillary sinusitis and Highmore ethmoiditis
# [12] = second group, after IM862 treatment
substance,measurement,setting,value
Glu-Trp [IM862],"B-Ig+, %",[1],19.0 ± 1.3 %
same,"B-Ig+, abs",[1],0.29 ± 0.03 10^9/liter
same,"B-IgA+, %",[1],1.8 ± 0.3%
same,"B-IgA+, abs",[1],0.030 ± 0.002 10^9/liter
same,"B-IgG+, %",[1],6.4 ± 0.5 %
same,"B-IgG+, abs",[1],0.100 ± 0.007 10^9/liter
same,"B-IgM+, %",[1],8.8 ± 0.7%
same,"B-IgM+, abs",[1],0.13 ± 0.02 10^9/liter
same,"CD2, %",[1],49 ± 3 %
same,"CD3, %",[1],53.4 ± 1.8 %
same,"CD3, abs",[1],0.82 ± 0.04** 10^9/liter
same,"CD4, %",[1],32.6 ± 1.4 %
same,"CD4, abs",[1],0.50 ± 0.04* 10^9/liter
same,"CD19, %",[1],26.7 ± 2.1%
same,"CD19, abs",[1],0.041 ± 0.03** 10^9/liter
same,"CDS, %",[1],21.2 ± 1.8%
same,"CDS, abs",[1],0.32 ± 0.03 10^9/liter
same,IgA,[1],1.8 ± 0.9 g/L
same,IgG,[1],10.9 ± 1.1 g/L
same,IgM,[1],1.07 ± 0.09 g/L
same,LMI,[1],72.7 ± 4.5
same,Lymphocytes %,[1],30.0 ± 1.8%
same,"Lymphocytes, abs",[1],1.52 ± 0.12* 10^9/liter
same,T4/T8,[1],1.54 ± 0.11
same,reduction of upper respiratory infections and rates of illness,[2],4 fold
same,number of the 15 tested antibiotics to which organisms from the infected foci were sensitive,[3],14
same,spontaneous tumorigenesis,[4],diminished frequency of spontaneous tumorigenesis
same,B-lymphocytes %,[5]; [10],21.9 ± 2.1%
same,B-lymphocytes abs.,[5]; [10],778.0 ± 89.9
same,Immune complexes,[5]; [10],113.3 ± 15.3
same,"Leukocytes, abs",[5]; [10],7200.0 ± 234.5
same,Lymphocytes %,[5]; [10],44.7 ± 1.7%
same,"Lymphocytes, abs",[5]; [10],3281.3 ± 235.0
same,O-lymphocytes %,[5]; [10],34.3 ± 2.4%
same,O-lymphocytes abs.,[5]; [10],1082.0 ± 21.0
same,T-lymphocytes %,[5]; [10],41.8 ± 1.2%
same,T-lymphocytes abs.,[5]; [10],1420.3 ± 131.6
same,Lysozyme,"[5]; acute purulent maxillary sinusitis, outwash from sinuses",45.0 ± 5.9
same,B-lymphocytes %,[5]; [11],20.7 ± 0.7%
same,B-lymphocytes abs.,[5]; [11],562.0 ± 38.1
same,Immune complexes,[5]; [11],90.8 ± 10.0
same,"Leukocytes, abs",[5]; [11],6650.0 ± 262.2
same,Lymphocytes %,[5]; [11],41.5 ± 2.6%
same,"Lymphocytes, abs",[5]; [11],2761.8 ± 212.6
same,Lysozyme,[5]; [11],52.4 ± 4.1
same,O-lymphocytes %,[5]; [11],37.4 ± 1.9%
same,O-lymphocytes abs.,[5]; [11],1052.5 ± 109.3
same,T-lymphocytes %,[5]; [11],41.8 ± 1.0%
same,T-lymphocytes abs.,[5]; [11],1109.8 ± 74.1
same,time until improvement was noted,[5]; first group,2 to 3 days
same,average hospital stay,[5]; first group (acute and subacute),9.2 days
same,quantity of crystallization centers in irrigated fluid,"[5]; first group, end of treatment",30-50
same,"cessation of exudation, number of patients","[5]; first group, in 7-9 days of treatment",3 patients
same,"cessation of exudation, number of patients","[5]; first group, on the 6th day of treatment",5 patients
same,"nasal breathing and general sense of wellness normalized, number of patients",[5]; second group,38 patients
same,average hospital stay,[5]; second group (chronic),8 days
same,"immunoglobulin M remained elevated, number of patients",[5]; [12],24 patients
same,"serum immunoglobulin A normalized, number of patients",[5]; [12],10 patients
same,"serum immunoglobulin G normalized, number of patients",[5]; [12],6 patients
same,increase in exudation from the affected sinuses,"[5]; second group, at 3-4 days of treatment vs second 24-hour period",10-15%
same,quantity of crystallization centers in irrigated fluid,"[5]; second group, control crystallograms",50-60
same,"disappearance of edema of the nasal mucosa, number of patients","[5]; second group, following 4-5 days of treatment",32 patients
same,"exudate attained a mucous character, number of patients","[5]; second group, in 3-4 days",27 patients
same,"cessation of exudation, number of patients","[5]; second group, in 4-6 days",18 patients
same,"exudate attained a mucous character, number of patients","[5]; second group, in 5-6 days",13 patients
same,"cessation of exudation, number of patients","[5]; second group, in 7-9 days",20 patients
same,"exudate attained a mucous character, number of patients","[5]; second group, in 7-9 days",two
same,"cessation of exudation, number of patients","[5]; second group, in 10-14 days",4 patients
same,therapeutic action during localized use,[5]; various forms of paranasal sinusitis,"normalization of nasal breathing, decrease in nasal cavity mucosal edema, cessation of exudation from the involved sinuses"
same,inflammatory changes in the omentum,[6]; after 5 days,did not principally differ between the groups
same,quantitative fungal cultures,[6]; after 10 days,fewer fungi in the treated animals
same,inflammatory changes in the omentum,"[6]; after 10 days, 1 μg/kg per day i.p. for four days",less pronounced than in untreated animals
same,Average term of hospitalization,[7]; 1st month,6.2 days
same,"Need in hospitalization, %",[7]; 1st month,27.0%
same,Number of temporary disablement cases/100 persons/month,[7]; 1st month,3.8 cases/100 persons/month
same,Number of temporary disablement days/100 persons/month,[7]; 1st month,24.0 days/100 persons/month
same,Sickness rate/100 persons/month,[7]; 1st month,9.6 /100 persons/month
same,Average term of hospitalization,[7]; 2nd month,6.2 days
same,"Need in hospitalization, %",[7]; 2nd month,27.1%
same,Number of temporary disablement cases/100 persons/month,[7]; 2nd month,7.3 cases/100 persons/month
same,Number of temporary disablement days/100 persons/month,[7]; 2nd month,48.6 days/100 persons/month
same,Sickness rate/100 persons/month,[7]; 2nd month,11.3 /100 persons/month
same,Average term of hospitalization,[7]; 3rd month,6.2 days
same,"Need in hospitalization, %",[7]; 3rd month,28.3%
same,Number of temporary disablement cases/100 persons/month,[7]; 3rd month,3.4 cases/100 persons/month
same,Number of temporary disablement days/100 persons/month,[7]; 3rd month,14.3 days/100 persons/month
same,Sickness rate/100 persons/month,[7]; 3rd month,9.4 /100 persons/month
same,Average term of hospitalization,[7]; 4th month,7.0 days
same,"Need in hospitalization, %",[7]; 4th month,28.3%
same,Number of temporary disablement cases/100 persons/month,[7]; 4th month,3.6 cases/100 persons/month
same,Number of temporary disablement days/100 persons/month,[7]; 4th month,26.3 days/100 persons/month
same,Sickness rate/100 persons/month,[7]; 4th month,11.0 /100 persons/month
same,Average term of hospitalization,[7]; IM862 group,6.2 days
same,Need in hospitalization,[7]; IM862 group,30.6
same,Number of temporary disablement cases/100 persons/month,[7]; IM862 group,4.1 cases/100 persons/month
same,Number of temporary disablement days/100 persons/month,[7]; IM862 group,26.5 days/100 persons/month
same,Pneumonia rate/100 persons/month,[7]; IM862 group,0.20 /100 persons/month
same,"Rate of lingering and complicated cases, %",[7]; IM862 group,3.9%
same,Sickness rate per 100 persons/month,[7]; IM862 group,9.8 per 100 persons/month
same,"The same index in-patients, %","[7]; IM862 group, lingering and complicated cases",9.8%
same,Index of efficiency: Average term of hospitalization,[7]; IM862 vs control,1.4
same,Index of efficiency: Need in hospitalization,[7]; IM862 vs control,1.7
same,Index of efficiency: Pneumonia rate,[7]; IM862 vs control,2.5
same,Index of efficiency: Rate of lingering and complicated cases,[7]; IM862 vs control,3.5
same,Index of efficiency: Sickness rate,[7]; IM862 vs control,3.1
same,Index of efficiency: The same index in-patients,[7]; IM862 vs control,2.7
same,Index of efficiency: temporary disablement cases,[7]; IM862 vs control,1.7
same,Index of efficiency: temporary disablement days,[7]; IM862 vs control,2.2
same,Duration of Abdominal pain,[8],7.7 ± 1.1 days
same,Duration of Anorexia,[8],7.5 ± 0.8 days
same,Duration of Headaches,[8],8.1 ± 0.9 days
same,Duration of Hepatomegaly,[8],11.3 ± 0.8 days
same,Duration of Insomnia,[8],7.1 ± 0.7 days
same,Duration of Joint pain,[8],7.4 ± 0.7 days
same,Duration of Low back pain,[8],8.1 ± 0.8 days
same,Duration of Lumbar pain,[8],8.7 ± 0.7 days
same,Duration of Ophthalmalgia,[8],6.6 ± 0.8 days
same,Duration of Splenomegaly,[8],9.6 ± 0.7 days
same,Duration of Weakness/fatigue,[8],9.3 ± 0.8 days
same,"Duration of Fever, Prescription 2-4 days",[8]; total dose 500 μg,4.7 ± 0.2 days
same,"Duration of Fever, Prescription 2-6 days",[8]; total dose 500 μg,5.2 ± 0.3 days
same,clinical effect,[9],reduction of fever
